According to US20090306133A1, “New Acetyl Coenzyme A Carboxylase (ACC) Inhibitors And Uses In Treatments Of Obesity And Diabetes Mellitus - 087” (ASTRAZENECA AB, priority 2007, published 2009):

Tests used:
Format in all cases: biochemical
[1] = molecular target: T1, Human recombinant Acetyl-CoA Carboxylase 2 (ACC2) (Homo sapiens, UniProt O00763); assay: Assay X: ACC2 inhibition, inorganic phosphate (malachite green); conditions: Assay X: 37° C., 1.5 h, 5 min pre-incubation
Description: (§1) Human recombinant Acetyl-CoA Carboxylase 1 and Acetyl-CoA Carboxylase 2 (ACC1 and ACC2) were assayed by determining the amount of inorganic phosphate (Pi) generated. Pre-incubation of 15 μL enzyme together with 0.75 μL DMSO+/−compound for 5 min was done before the reaction was initiated by the addition of 10 μL substrate. […] After 1.5 h the reaction was stopped by addition of 74 μL of water followed by extensive mixing, split and transfer of 2×40 μL to a read-plate encompassing 30 μL distilled H2O per well (n=2→n=4). Colour reaction was initiated by addition of 30 μL malachite green reagent per well and allowed 15 min before absorbance reading of the plates at 660 nm. The malachite green reagent was prepared by mixing 16.4 mL ammonium molybdate solution (7.5%), 1.64 mL Tween (11%) with 82 mL Malachite Green/H2SO4-solution (0.7 g Malachite Green to 1000 mL of 10% (v/v) H2SO4).
(§2) All compounds were tested in triplicate at 10 different concentrations. Control compound (0, 50 and 100% effect) was included on each plate. […] Curve fitting was done using the following equation: y=(A+((B−A)/(1+((x/C)̂D)))) where A and B represents the curve bottom (% inhibition) and the total amplitude (% inhibition), respectively, whereas C and D are the apparent IC50 and curve slope, respectively.

[2] = molecular target: T2, Human recombinant Acetyl-CoA Carboxylase 1 (ACC1) (Homo sapiens, UniProt Q13085); assay: Assay X: ACC1 inhibition, inorganic phosphate (malachite green); conditions: Assay X: 37° C., 1.5 h, 5 min pre-incubation
Description: as §1, §2

[3] = molecular target: T1, Human recombinant Acetyl-CoA Carboxylase 2 (ACC2); assay: Assay Y: ACC2 inhibition, inorganic phosphate (Malachite Green); conditions: Assay Y: room temperature, 3 hr, 15 min preincubation
Outline: (§3)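 Enzyme preincubated with compound 15 min before substrate addition; reaction run 3 h, then phosphate detected with Malachite Green at 670 nm after 10 min at room temperature. Triplicate 10-point titrations; IC50 by non-linear four-parameter curve fitting.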

[4] = molecular target: T2, Human recombinant Acetyl-CoA Carboxylase 1 (ACC1); assay: Assay Y: ACC1 inhibition, inorganic phosphate (Malachite Green); conditions: Assay Y: room temperature, 3 hr, 15 min preincubation
Outline: as §3

T1 sequence (O00763 whole entry): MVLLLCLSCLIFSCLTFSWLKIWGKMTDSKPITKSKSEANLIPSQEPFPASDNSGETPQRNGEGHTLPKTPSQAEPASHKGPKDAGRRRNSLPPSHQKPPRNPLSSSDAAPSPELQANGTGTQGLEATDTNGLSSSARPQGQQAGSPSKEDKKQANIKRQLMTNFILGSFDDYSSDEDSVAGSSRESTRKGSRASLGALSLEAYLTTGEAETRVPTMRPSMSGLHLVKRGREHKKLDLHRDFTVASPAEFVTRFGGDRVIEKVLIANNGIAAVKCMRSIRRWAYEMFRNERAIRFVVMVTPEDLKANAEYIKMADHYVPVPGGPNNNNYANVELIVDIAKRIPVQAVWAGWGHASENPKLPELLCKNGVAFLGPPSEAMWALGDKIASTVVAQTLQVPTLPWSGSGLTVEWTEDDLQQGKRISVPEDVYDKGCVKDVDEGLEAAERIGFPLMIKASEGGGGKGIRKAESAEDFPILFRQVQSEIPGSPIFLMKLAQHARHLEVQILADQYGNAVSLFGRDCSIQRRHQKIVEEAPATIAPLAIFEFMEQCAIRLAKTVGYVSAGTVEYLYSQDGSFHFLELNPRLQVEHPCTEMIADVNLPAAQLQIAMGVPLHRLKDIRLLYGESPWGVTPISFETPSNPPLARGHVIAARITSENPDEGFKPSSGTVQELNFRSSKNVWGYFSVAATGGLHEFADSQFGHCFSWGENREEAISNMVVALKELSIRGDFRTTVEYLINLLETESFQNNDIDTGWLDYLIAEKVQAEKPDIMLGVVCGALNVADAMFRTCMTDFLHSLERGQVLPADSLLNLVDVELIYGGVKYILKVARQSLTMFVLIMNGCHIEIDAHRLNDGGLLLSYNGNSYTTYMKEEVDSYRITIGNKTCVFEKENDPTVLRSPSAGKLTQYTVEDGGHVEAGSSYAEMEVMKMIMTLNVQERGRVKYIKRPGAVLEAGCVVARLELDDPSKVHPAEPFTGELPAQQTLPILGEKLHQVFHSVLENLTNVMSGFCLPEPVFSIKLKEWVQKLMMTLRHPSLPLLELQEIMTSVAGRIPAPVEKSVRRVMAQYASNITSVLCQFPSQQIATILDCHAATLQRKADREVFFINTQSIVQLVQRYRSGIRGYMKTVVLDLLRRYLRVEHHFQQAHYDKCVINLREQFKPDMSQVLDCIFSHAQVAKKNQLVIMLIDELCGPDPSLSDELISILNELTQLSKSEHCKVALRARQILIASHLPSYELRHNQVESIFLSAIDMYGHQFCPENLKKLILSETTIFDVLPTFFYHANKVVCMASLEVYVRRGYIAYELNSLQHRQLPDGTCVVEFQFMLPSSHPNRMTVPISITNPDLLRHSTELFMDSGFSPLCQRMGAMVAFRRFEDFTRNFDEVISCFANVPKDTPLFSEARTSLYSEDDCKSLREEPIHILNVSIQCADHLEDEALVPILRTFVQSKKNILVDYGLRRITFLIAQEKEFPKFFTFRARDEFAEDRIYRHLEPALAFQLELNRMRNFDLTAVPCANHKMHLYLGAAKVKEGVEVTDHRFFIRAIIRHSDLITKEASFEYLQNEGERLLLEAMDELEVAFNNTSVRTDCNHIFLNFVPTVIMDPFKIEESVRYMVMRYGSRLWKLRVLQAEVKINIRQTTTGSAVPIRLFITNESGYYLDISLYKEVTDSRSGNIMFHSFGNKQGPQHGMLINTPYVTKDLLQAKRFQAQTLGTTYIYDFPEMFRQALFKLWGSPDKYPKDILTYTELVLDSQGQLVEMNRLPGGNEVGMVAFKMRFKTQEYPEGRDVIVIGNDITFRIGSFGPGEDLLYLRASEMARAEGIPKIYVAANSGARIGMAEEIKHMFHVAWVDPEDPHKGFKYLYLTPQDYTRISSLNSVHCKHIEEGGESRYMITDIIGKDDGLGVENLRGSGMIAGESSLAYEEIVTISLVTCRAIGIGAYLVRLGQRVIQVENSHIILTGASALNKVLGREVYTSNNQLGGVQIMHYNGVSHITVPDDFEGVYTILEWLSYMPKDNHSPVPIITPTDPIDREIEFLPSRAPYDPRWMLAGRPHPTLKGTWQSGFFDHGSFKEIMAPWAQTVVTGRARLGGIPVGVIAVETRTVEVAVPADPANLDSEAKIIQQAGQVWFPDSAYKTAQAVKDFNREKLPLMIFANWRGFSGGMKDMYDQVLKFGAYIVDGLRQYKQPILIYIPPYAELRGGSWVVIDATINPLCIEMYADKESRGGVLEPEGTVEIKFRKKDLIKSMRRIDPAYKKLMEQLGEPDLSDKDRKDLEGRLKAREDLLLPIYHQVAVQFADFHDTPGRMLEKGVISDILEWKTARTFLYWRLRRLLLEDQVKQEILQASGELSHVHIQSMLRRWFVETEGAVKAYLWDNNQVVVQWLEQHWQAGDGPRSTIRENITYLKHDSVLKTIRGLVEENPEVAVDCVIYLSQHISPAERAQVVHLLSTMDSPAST

Compound | IC50 [1] [µM] | IC50 [2] [µM] | IC50 [3] [µM] | IC50 [4] [µM]
CC(C)(C)OC(=O)NC[C@H]1CC[C@H](CNC(=O)c2cc(-c3ccc(N4CCCC(O)C4)nc3)nc3ccccc23)CC1 (relative stereo) [Example 157, tert-Butyl[(trans-4-{[({2-[6-(3-hydroxypiperidin-1-yl)pyridin-3-yl]-quinolin-4-yl}carbonyl)amino]methyl}cyclohexyl)methyl]carbamate] | 0.18 | 0.41 | – | –
CC(CNc1ccc(-c2cc(C(=O)NC[C@H]3CC[C@H](CNC(=O)OC(C)(C)C)CC3)c3ccccc3n2)cn1)C(=O)O (relative stereo) [Example 158, 3-{[5-(4-{[(trans-4-{[(tert-Butoxycarbonyl)amino]methyl}cyclohexyl)methyl]-carbamoyl}quinolin-2-yl)pyridin-2-yl]amino}-2-methyl-propanoic acid] | 1.24 | 3.87 | – | –
CC(=O)N1CCN(c2ccc(-c3cc(C(=O)NC[C@H]4CC[C@H](CNC(=O)OC(C)(C)C)CC4)c4ccccc4n3)cn2)CC1 [Example 142, tert-Butyl [(trans-4-{[({2-[6-(4-acetylpiperazin-1-yl)pyridin-3-yl]quinolin-4-yl}carbonyl)amino]methyl}cyclohexyl)methyl]carbamate] | – | – | 0.13 | > 20
CC(C)(C)OC(=O)NC[C@H]1CC[C@H](CNC(=O)c2cc(-c3ccc(NCCO)nc3)nc3ccccc23)CC1 [Example 143, tert-Butyl{[trans-4-({[(2-{6-[(2-hydroxyethyl)amino]pyridin-3-yl}quinolin-4-yl)carbonyl]amino}methyl)cyclohexyl]methyl}carbamate] | – | – | 0.03 | 0.36
CC(C)(C)OC(=O)NC[C@H]1CC[C@H](CNC(=O)c2cc(-c3ccc(N4CCCC4)nc3)nc3ccccc23)CC1 [Example 144, tert-Butyl({trans-4-[({[2-(6-pyrrolidin-1-ylpyridin-3-yl)quinolin-4-yl]carbonyl}amino)methyl]cyclohexyl}methyl)carbamate] | – | – | 0.22 | 4
CC(C)(C)OC(=O)NC[C@H]1CC[C@H](CNC(=O)c2cc(-c3ccc(N4CCOCC4)nc3)nc3ccccc23)CC1 [Example 145, tert-Butyl({trans-4-[({[2-(6-morpholin-4-ylpyridin-3-yl)-quinolin-4-yl]carbonyl}amino)-methyl]cyclohexyl}methyl)carbamate] | – | – | 0.06 | 0.28
CN(C)CCNc1ccc(-c2cc(C(=O)NC[C@H]3CC[C@H](CNC(=O)OC(C)(C)C)CC3)c3ccccc3n2)cn1 [Example 146, tert-Butyl({trans-4-[({[2-(6-{[2-(dimethylamino)ethyl]-amino}pyridin-3-yl)quinolin-4-yl]carbonyl}amino)-methyl]cyclohexyl}-methyl)carbamate] | – | – | 0.03 | 0.18
CC(C)(C)OC(=O)NC[C@H]1CC[C@H](CNC(=O)c2cc(-c3ccc(N4CC[C@@H](O)C4)nc3)nc3ccccc23)CC1 [Example 147, tert-Butyl{[trans-4-({[(2-{6-[(3R)-3-hydroxypyrrolidin-1-yl]pyridin-3-yl}quinolin-4-yl)carbonyl]amino}-methyl)cyclohexyl]-methyl}carbamate] | – | – | 0.03 | 2.59
C[C@@H](CO)Nc1ccc(-c2cc(C(=O)NC[C@H]3CC[C@H](CNC(=O)OC(C)(C)C)CC3)c3ccccc3n2)cn1 [Example 148, tert-Butyl({trans-4-[({[2-(6-{[(1S)-2-hydroxy-1-methylethyl]amino}-pyridin-3-yl)quinolin-4-yl]carbonyl}amino)-methyl]cyclohexyl}-methyl)carbamate] | – | – | 0.07 | 0.46
C[C@H](CO)Nc1ccc(-c2cc(C(=O)NC[C@H]3CC[C@H](CNC(=O)OC(C)(C)C)CC3)c3ccccc3n2)cn1 [Example 149, tert-Butyl({trans-4-[({[2-(6-{[(1R)-2-hydroxy-1-methylethyl]amino}-pyridin-3-yl)quinolin-4-yl]carbonyl}amino)-methyl]cyclohexyl}-methyl)carbamate] | – | – | 0.05 | 0.39
CC(C)(C)OC(=O)NC[C@H]1CC[C@H](CNC(=O)c2cc(-c3ccc(OCC4CCOC4)nc3)nc3ccccc23)CC1 (stereo partly drawn) [Example 173, tert-Butyl [(trans-4-{[({2-[6-(tetrahydrofuran-3-ylmethoxy)pyridin-3-yl]quinolin-4-yl}carbonyl)amino]methyl}cyclohexyl)methyl]carbamate] | 0.41 | – | – | –
CN1CCN(CCCOc2cc(C(=O)NC[C@H]3CC[C@H](CNC(=O)OC(C)(C)C)CC3)c3ccccc3n2)CC1 [Example 180, tert-Butyl [(trans-4-{[({2-[3-(4-methylpiperazin-1-yl)propoxy]quinolin-4-yl}carbonyl)amino]methyl}cyclohexyl)methyl]carbamate] | – | – | 1.06 | 6.91
CN(C)CCCOc1cc(C(=O)NC[C@H]2CC[C@H](CNC(=O)OC(C)(C)C)CC2)c2ccccc2n1 [Example 181, tert-Butyl[(trans-4-{[({2-[3-(dimethylamino)-propoxy]quinolin-4-yl}carbonyl)amino]-methyl}cyclohexyl)-methyl]carbamate] | – | – | 1.34 | 12.3
CN1CCN(CCOc2cc(C(=O)NC[C@H]3CC[C@H](CNC(=O)OC(C)(C)C)CC3)c3ccccc3n2)CC1 [Example 182, tert-Butyl[(trans-4-{[({2-[2-(4-methylpiperazin-1-yl)ethoxy]quinolin-4-yl}carbonyl)amino]methyl}cyclohexyl)methyl]carbamate] | – | – | 1.76 | 6.43
CC(=O)N1CCN(CCCOc2cc(C(=O)NC[C@H]3CC[C@H](CNC(=O)OC(C)(C)C)CC3)c3ccccc3n2)CC1 [Example 183, tert-Butyl[(trans-4-{[({2-[3-(4-acetylpiperazin-1-yl)propoxy]quinolin-4-yl}carbonyl)amino]-methyl}cyclohexyl)-methyl]carbamate] | – | – | 1.26 | > 20
CN(C)CCOc1ccc(-c2cc(C(=O)NC[C@H]3CC[C@H](CNC(=O)OC(C)(C)C)CC3)c3ccccc3n2)cn1 [Example 184, tert-Butyl{[trans-4-({[(2-{6-[2-(dimethylamino)ethoxy]pyridin-3-yl}quinolin-4-yl)carbonyl]amino}-methyl)cyclohexyl]-methyl}carbamate] | – | – | 0.04 | 0.21
CC(C)(C)OC(=O)NC[C@H]1CC[C@H](CNC(=O)c2cc(N3CCN(CCO)CC3)nc3ccccc23)CC1 [Example 185, tert-Butyl [(trans-4-{[({2-[4-(2-hydroxyethyl)piperazin-1-yl]quinolin-4-yl}carbonyl)amino]methyl}cyclohexyl)methyl]carbamate] | – | – | 1.12 | > 20
CN(C)CCN1CCN(c2cc(C(=O)NC[C@H]3CC[C@H](CNC(=O)OC(C)(C)C)CC3)c3ccccc3n2)CC1 [Example 186, tert-Butyl{[trans-4-({[(2-{4-[2-(dimethylamino)ethyl]-piperazin-1-yl}quinolin-4-yl)carbonyl]amino}-methyl)cyclohexyl]-methyl}carbamate] | – | – | 0.14 | 2.22
CC(C)(C)OC(=O)NC[C@H]1CC[C@H](CNC(=O)c2cc(N3CCC(O)CC3)nc3ccccc23)CC1 [Example 187, tert-Butyl({trans-4-[({[2-(4-hydroxypiperidin-1-yl)quinolin-4-yl]carbonyl}amino)-methyl]cyclohexyl}-methyl)carbamate] | – | – | 0.56 | 8.48
CC(C)(C)OC(=O)NC[C@H]1CC[C@H](CNC(=O)c2cc(N3CCC(CO)CC3)nc3ccccc23)CC1 [Example 188, tert-Butyl[(trans-4-{[({2-[4-(hydroxymethyl)-piperidin-1-yl]quinolin-4-yl}carbonyl)amino]-methyl}cyclohexyl)-methyl]carbamate] | – | – | 0.27 | 5.64
CC(C)(C)OC(=O)NC[C@H]1CC[C@H](CNC(=O)c2cc(N3CCC(CCO)CC3)nc3ccccc23)CC1 [Example 189, tert-butyl [(trans-4-{[({2-[4-(2-hydroxyethyl)piperidin-1-yl]quinolin-4-yl}carbonyl)amino]methyl}cyclohexyl)methyl]carbamate] | – | – | 0.07 | 1.96
CN1CCN(c2ccc(-c3cc(C(=O)N[C@H]4CC[C@H](CNC(=O)OC(C)(C)C)CC4)c4ccccc4n3)cn2)CC1 [Example 204, tert-Butyl ({trans-4-[({2-[6-(4-methylpiperazin-1-yl)pyridin-3-yl]quinolin-4-yl}carbonyl)amino]cyclohexyl}methyl)carbamate] | – | – | 0.38 | 3.8
